Laboratory results published in patent publication US20150225794A1, “METHOD OF PREDICTING A PREDISPOSITION TO QT PROLONGATION” (Vanda Pharmaceuticals, Inc., priority 2009, published 2015).

Tests used:
QT interval [1] = test: ABCC2 SNP genotypes and QT prolongation following administration of iloperidone; type: in vivo, human; conditions: QTcF
Description: (§1) Since the QT interval changes with changes in heart rate, the QT interval is often measured as a corrected QT (QTc) interval. Any number of formulas may be employed to calculate the QTc, including, for example, the Fridericia formula (QTcF), the Bazett formula (QTcB), and the Rautaharju formula (QTp), among others. In the studies described herein, QT was calculated using the Fridericia formula. However, the present invention includes the use of any such formula or method for calculating a QTc or an uncorrected QT.

QT interval [2] = test: QT prolongation and rs7067971 genotype in individuals given oral iloperidone for two weeks; type: in vivo, human; conditions: for High QT, + test (number of individuals) / Low QT, + test (number of individuals): rs7067971 GG; for High QT, + test (number of individuals) / Low QT, + test (number of individuals) / High QT, − test (number of individuals) / Low QT, − test (number of individuals): 24 mg/day B.I.D. oral, two weeks; for High QT, − test (number of individuals) / Low QT, − test (number of individuals): rs7067971 non-GG; for Odds Ratio: rs7067971 GG test
Description: as §1, with “QT. Using the genotypes at the SNP loci above, it is possible, with a high degree of certainty, to predict an individual's predisposition to QT prolongation.” for “QT.”

With `COc1cc(C(C)=O)ccc1OCCCN1CCC(c2noc3cc(F)ccc23)CC1` [iloperidone] the “Lowest QTc change (genotype)” value (QT interval [1]; SNP_A-2004488, rs2256678, allele A C, allele B T) was “non-BB”, the “Lowest QTc change (genotype)” value (QT interval [1]; SNP_A-2068049, rs7067971, allele A A, allele B G) was “non-BB” and the “Lowest QTc change (genotype)” value (QT interval [1]; SNP_A-2253129, rs4919395, allele A C, allele B T) was “non-BB”. The “Lowest QTc change (genotype)” value (QT interval [1]; SNP_A-2262953, rs2804398, allele A A, allele B T) was “non-BB”, the “Lowest QTc change (genotype)” value (QT interval [1]; SNP_A-4268713, rs2256700, allele A A, allele B G) was “non-BB” and the “High QT, + test (number of individuals)” value (QT interval [2]; change threshold QT > 5 msec) was 13. For the same compound, the “Low QT, + test (number of individuals)” value (QT interval [2]; change threshold QT > 5 msec) was 0, the “High QT, − test (number of individuals)” value (QT interval [2]; change threshold QT > 5 msec) was 101 and the “Low QT, − test (number of individuals)” value (QT interval [2]; change threshold QT > 5 msec) was 64. The “Odds Ratio” value (QT interval [2]; change threshold QT > 15 msec) was 9.38, the “High QT, + test (number of individuals)” value (QT interval [2]; change threshold QT > 15 msec) was 11 and the “Low QT, + test (number of individuals)” value (QT interval [2]; change threshold QT > 15 msec) was 2. The “High QT, − test (number of individuals)” value (QT interval [2]; change threshold QT > 15 msec) was 61, the “Low QT, − test (number of individuals)” value (QT interval [2]; change threshold QT > 15 msec) was 104 and the “Odds Ratio” value (QT interval [2]; change threshold QT > 30 msec) was 5.88. For the same compound, the “High QT, + test (number of individuals)” value (QT interval [2]; change threshold QT > 30 msec) was 6, the “Low QT, + test (number of individuals)” value (QT interval [2]; change threshold QT > 30 msec) was 7 and the “High QT, − test (number of individuals)” value (QT interval [2]; change threshold QT > 30 msec) was 21. The “Low QT, − test (number of individuals)” value (QT interval [2]; change threshold QT > 30 msec) was 144.
